# Source: patent US7897789B2, “Vitamin D receptor modulators” (Eli Lilly and Company, priority 2003, dated 2011)
# Several values for one entry are separate records, joined by “and”; a condition that tells them apart may be missing. Equal values may be shown once. Read-outs that look alike come from different tables or passages of the source.
# Experiments:
# VDR = biological target: T1, VDR (Homo sapiens, UniProt P11473); assay: Caco-2 cell co-transfection assay (VDR CTF); format: cell-based; conditions: Caco-2 cells, pGal4-VDR-LBD luciferase co-transfection; Table 1
# T1 construct: the receptor expression vector pGal4-VDR-LBD (10 ng); expressed in transfected cells; host or cells: Caco-2 cells
# T1 sequence (P11473 127-423 limits assumed): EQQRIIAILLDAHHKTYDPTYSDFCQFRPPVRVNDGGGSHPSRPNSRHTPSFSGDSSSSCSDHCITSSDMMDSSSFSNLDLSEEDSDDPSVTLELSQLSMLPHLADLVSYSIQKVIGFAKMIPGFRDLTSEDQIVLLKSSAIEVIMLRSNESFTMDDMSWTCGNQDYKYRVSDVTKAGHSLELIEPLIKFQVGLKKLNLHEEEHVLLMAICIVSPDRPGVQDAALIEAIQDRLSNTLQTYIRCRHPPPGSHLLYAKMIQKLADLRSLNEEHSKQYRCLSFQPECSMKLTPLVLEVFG
# Protocol: 2. The Caco-2 Cell Co-Transfection Assay:
# The Caco-2 cell assay is an indicator for the undesirable condition of hypercalcemia. This co-transfection assay is a surrogate assay for in vivo calcemic activity of VDR ligands. […] Preferred assay results are greater than 1000 nM.
# (2) Materials and Method for The Caco-2 Cell Assay:
# Caco-2 cells, grown in phenol red free, DMEM (Invitrogen, Carlsbad, Calif.) containing 10% charcoal-stripped FCS (Hyclone, Logan, Utah), were transfected with Fugene 6 reagent (Roche Diagnostics, Indianapolis, Ind.). Cells (5000/well) were plated 18 h before transfection in a 96 well plate. The Cells were transfected with Gal4-responsive reporter pFRLuc (150 ng, Stratagene, La Jolla Calif.) and the receptor expression vector pGal4-VDR-LBD (10 ng), along with Fugene 6 reagent (0.2 μl/well). The DNA-Fugene complex was formed by incubating the mixture for 30 min at room temperature. The cells were transfected in triplicate for 5 h, and treated with various concentrations of VDR ligands (form 0.01 nM to 10,000 nM concentration range) 18 h post-transfection. The luciferase activity was quantified using Steady-Glo reagent kit (Promega, Madison, Wis.) as per manufacturer's specifications.
# KERtr cells = assay: Keratinocyte proliferation assay; format: cell-based; conditions: Homo sapiens
# Protocol: 5. The Keratinocyte Proliferation Assay
# This Assay is indicative for the treatment of psoriasis.
# (5) The Keratinocyte Proliferation Assay:
# KERtr cells (Human skin keratinocyte transformed with a retrovirus vector, obtained from ATCC) were plated in 96-well flat-bottomed plates (3000 cells/well) in 100 μl keratinocyte serum free medium supplemented with bovine pituitary extract in the absence of EGF (Life Technologies, Rockville, Md.) and incubated at 37° C. for two days. The cells were treated with various concentrations of VDR ligands (ten-fold serial dilution from 10,000 nM to 0.1 nM in triplicate), dissolved in 100 μl keratinocyte serum free medium supplemented with bovine pituitary extract in the absence of EGF and incubated at 37° C. for 72 hr. […] Potency values (IC50) values were determined as the concentration (nM) of compound that elicited a half-maximal response.
# DBF mice = assay: Mouse hypercalcemia assay; conditions: oral gavage for 6 days
# From the text: The Mouse Hypercalcemia Assay
# The Mouse Hypercalcemia Assay is a six day hypercalcemia test for toxicity and selectivity.
# (4) Materials and Method for the Mouse Hypercalcemia Assay:
# Weanling, virus-antibody-free, five to six weeks old female DBF mice (Harlan, Indianapolis, Ind.) are used for all the studies. Animals are allowed to acclimate to local vivarium conditions for 2 days. […] The animals then are divided into groups with 4-5 mice per group. Different doses of test compounds prepared in 10% Ethanol and 90% sesame oil are administered to mice orally via gavage for 6 days. 1α-25(OH)2D3 0.5 μg/kg/d was also given to one group of mice as the positive control. […] Raw data of group differences is assessed by analysis of variance (ANOVA) using Fisher's protected least significant difference (PLSD) where the significance level was P<0.05.
# rat osteocalcin promoter = assay: OCN (osteocalcin) promoter assay; format: cell-based; conditions: RG-15 (ROS 17/2.8) cells
# Protocol: 3. The OCN (Osteocalcin) Promoter Assay
# The OCN Promoter Assay is an indicator and marker for osteoporosis. […] Preferred assay results are less than 50 nM.
# (3) Materials and Method for the OCN Promoter Assay:
# The activation of osteocalcin by VDR ligands was evaluated in a rat osteoblast-like cell line RG-15 (ROS 17/2.8) stably expressing rat osteocalcin promoter fused with luciferase reporter gene. […] Confluent RG-15 cells maintained in DMEM/F-12 medium (3:1) containing 5% FBS, 300 μg/ml G418 and at 37° C. under 5% CO2/95% air atmosphere were trypsinized (0.25% trypsin) and plated into white opaque 96-well cell culture plates (25000 cells/well). After 24 hr, cells (in DMEM/F-12 medium+2% FBS) were treated with various concentrations of compounds, dissolved in DMSO. The final DMSO concentration remained at 0.01% (v/v). After 48 hr treatment, the medium was removed, cells were lysed with 50 μl of lysis buffer (From Luciferase reporter assay system, Roche Diagnostics, Indianapolis, Ind.) and assayed for luciferase activity using the Luciferase Reporter Gene Assay kit from Boehringer Mannheim as per manufacturer's specifications.
# RXR-VDR heterodimer = biological target: T2, RXR-VDR heterodimer (Homo sapiens, UniProt P11473); assay: RXR-VDR heterodimerization assay (SaOS-2 cells); format: cell-based; conditions: Gal4-RXR / VP16-VDR-LBD luciferase reporter, Table 1
# T2 construct: Add the Gal4-RXR-DEF and VP16-VDR-LBD; expressed in transfected cells; host or cells: SaOS-2 cells
# T2 sequence (P11473 127-423 limits assumed): T1 sequence (P11473 127-423 limits assumed)
# T2 sequence (P19793 201-462 partner limits assumed): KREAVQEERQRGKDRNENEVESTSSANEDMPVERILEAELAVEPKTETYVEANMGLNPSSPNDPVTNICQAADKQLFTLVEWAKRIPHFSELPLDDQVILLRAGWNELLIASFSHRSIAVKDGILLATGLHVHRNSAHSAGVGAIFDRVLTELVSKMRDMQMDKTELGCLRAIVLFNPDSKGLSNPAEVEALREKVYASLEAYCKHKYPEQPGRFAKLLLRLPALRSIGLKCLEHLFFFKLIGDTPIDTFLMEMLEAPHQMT
# Protocol: 1. The RXR-VDR HeterodimerAssay:
# This assay provides the VDR activity of a test compound.
# (1) Materials and Method for RXR-VDR Heterodimerization Assay:
# Luciferase Assay Reagent: • Use Steady-Glo Luciferase Reagent from Promega (Cat #E2550) Consists of: a. E2533 Assay Substrate, lyopholized product and b. E2543 Assay Buffer. • Thaw at room temperature • Store Cell Harvesting Aspirate media from culture flask, rinse cells with HBSS and aspirate. Add trypsin and incubate. When cells appear detached, resuspend cells in growth media. Transfer into a new flask with fresh growth media for passaging the cells. Plate well plates and two extra plates A. Cell Count Mix the cell suspension using pipette Use Hematocytometer to count the cells Load cell suspension onto the hemocytometer chamber Count cells. […] In sterile flask add cell suspension to plating media. Mix. Add cells/well. Place the cells in the incubator. Cells should be about 75% confluent prior to transfection. DAY 2: Transfection Step 1: DNA and Media Add plain DMEM media to tubes for mixing the DNA Add the Reporter gene pFR-LUC Add the Gal4-RXR-DEF and VP16-VDR-LBD Step 2: FuGENE and Media Prepare plain DMEM media in a ubes for mixing FuGENE Add FuGENE 6 Transfection Reagent Incubate Step 3: FuGENE, DNA and Media Complex Add FuGENE Media complex from step 2 to DNA Media complex from step 1 Incubate Step 4: FuGENE, DNA and Media Complex to-well plate Add FuGENE-DNA-Media complex from step 3 to each plate Incubate. […] Day 4: Luciferase Assay Read the plates after drug treatment Remove part of media from all the wells and leave remainder Add Steady-Glo Luciferase Reagent mixture/wells Incubate Count each well using a Luminescence counter, Top Count NXT by Packard
# Set a delay between plates to reduce the background.
# [1] = 72 h, BrdU incorporation, Table 2, read-out: Kera. Prolif. IC50
# [2] = serum ionized calcium 6 hours after last dosing, Table 1
# [3] = Rattus norvegicus, 48 h, 48 hr treatment, Table 1
# [4] = comparison compounds, Table 4, read-out: Kera. Prolif. IC50
# [5] = Rattus norvegicus, comparison compounds, Table 3
Compound,EC50 (VDR) [nM],IC50 (KERtr cells; [1]) [nM],EC50 (rat osteocalcin promoter; [3]) [nM],EC50 (RXR-VDR heterodimer),further results
"CCC(CC)(c1ccc(OCC(=O)C(C)(C)C)c(C)c1)c1cc2ccc(C(=O)O)cc2s1 [Ex 7, 2-{1-[4-(3,3-dimethyl-2-oxo-butoxy)-3-methyl-phenyl]-1-ethyl-propyl}-benzo[b]thiophene-6-carboxylic acid]",791,1000,1,,Mouse Hypercal (DBF mice; [2]): >300 µg/kg/day
"CCC(CC)(c1ccc(OCC(=O)C(C)(C)C)c(C)c1)c1ccc2sc(C(=O)O)cc2c1 [Ex. 13, 5-{1-[4-(3,3-dimethyl-2-oxo-butoxy)-3-methyl-phenyl]-1-ethyl-propyl}-benzo[b]thiophene-2-carboxylic acid]",994,,,488 nM and 111 nM,Mouse Hypercal (DBF mice; [2]): >300 µg/kg/day
"CCC(CC)(c1ccc(OCC(O)C(C)(C)C)c(C)c1)c1ccc2sc(C(=O)NCC(=O)O)cc2c1 (stereo not drawn) [Ex 16, [(5-{1-ethyl-1-[4-(2-hydroxy-3,3-dimethyl-butoxy)-3-methyl-phenyl]-propyl}-benzo[b]thiophene-2-carbonyl)-amino]-acetic acid]",938,384,,254 nM and 108 nM,
"CCC(CC)(c1ccc(OCC(O)C(C)(C)C)c(C)c1)c1ccc2sc(C(=O)O)cc2c1 (stereo not drawn) [Ex 14, 5-{1-ethyl-1-[4-(2-hydroxy-3,3-dimethyl-butoxy)-3-methyl-phenyl]-propyl}-benzo[b]thiophene-2-carboxylic acid]",941,,6,,
"CCC(CC)(c1ccc(OCC(O)CO)c(C)c1)c1ccc(OCC(O)C(C)(C)C)c(C)c1 (stereo not drawn) [BB, 3-(4-{1-Ethyl-1-[4-(2-hydroxy-3,3-dimethyl-butoxy)-3-methyl-phenyl]-propyl}-2-methyl-phenoxy)-propane-1,2-diol, reference compound]",,,,,"IC50 (KERtr cells; [4]): 10 nM; Mouse Hypercal (DBF mice; comparison compounds, Table 3): 20 µg/kg/day; EC50 (rat osteocalcin promoter; [5]): 8.24 nM"
"CCC(CC)(c1ccc(OCC(=O)C(C)(C)C)c(C)c1)c1ccc(OC[C@H](O)C(C)(C)C)c(C)c1 [EE, reference compound]",,,,,"Mouse Hypercal (DBF mice; comparison compounds, Table 3): 1000 µg/kg/day; EC50 (rat osteocalcin promoter; [5]): 341 nM"
"CCOC(=O)c1cc2cc(C(CC)(CC)c3ccc(OCC4(C(C)(C)C)OCCO4)c(C)c3)ccc2s1 [Ex 23, 5-{1-[4-(2-tert-Butyl-[1,3]dioxolan-2-ylmethoxy)-3-methyl-phenyl]-1-ethyl-propyl}-benzo[b]thiophene-2-carboxylic acid ethyl ester]",,,161,,
"CCC(CC)(c1ccc(OCC(=O)C(C)(C)C)c(C)c1)c1cc2ccc(C(=O)N(C)C)cc2s1 [Ex. 9, 2-{1-[4-(3,3-Dimethyl-2-oxo-butoxy)-3-methyl-phenyl]-1-ethyl-propyl}-benzo[b]thiophene-6-carboxylic acid dimethylamide]",1270,1000,41,,"EC50 (rat osteocalcin promoter; 48 hr treatment, Table 1): 35 nM"
"CCC(CC)(c1ccc(OCC(=O)C(C)(C)C)c(C)c1)c1cc2cc(OS(C)(=O)=O)ccc2s1 [Ex 24, methanesulfonic acid 2-{1-[4-(3,3-dimethyl-2-oxo-butoxy)-3-methyl-phenyl]-1-ethyl-propyl}-benzo[b]thiophen-5-yl ester]",,232,215,695 nM,
"CCC(CC)(c1ccc(OCC(O)C(C)(C)C)c(C)c1)c1ccc2cc(C(=O)N(C)C)sc2c1 (stereo not drawn) [Ex. 4, 6-{1-ethyl-1-[4-(2-hydroxy-3,3-dimethyl-butoxy)-3-methyl-phenyl]-propyl}-benzo[b]thiophene-2-carboxylic acid dimethylamide]",555,,20,,"EC50 (rat osteocalcin promoter; 48 hr treatment, Table 1): 15 nM"
"CCC(CC)(c1ccc(OCC(=O)C(C)(C)C)c(C)c1)c1ccc(OCC(=O)C(C)(C)C)c(C)c1 [DD, reference compound]",,,,,"IC50 (KERtr cells; [4]): 1060 nM; Mouse Hypercal (DBF mice; comparison compounds, Table 3): 1000 µg/kg/day; EC50 (rat osteocalcin promoter; [5]): 31.1 nM"
"CCC(CC)(c1ccc(OCC(O)C(C)(C)C)c(C)c1)c1cc2ccc(C(=O)NCC(=O)O)cc2s1 (stereo not drawn) [Ex. 12, [(2-{1-Ethyl-1-[4-(2-hydroxy-3,3-dimethyl-butoxy)-3-methyl-phenyl]-propyl}-benzo[b]thiophene-6-carbonyl)-amino]-acetic acid]",137,1,0.3,19 nM and 2 nM,
"CCC(CC)(c1ccc(OCC(O)C(C)(C)C)c(C)c1)c1cc2ccc(C(=O)N(C)C)cc2s1 (stereo not drawn) [Ex. 10, 2-{1-Ethyl-1-[4-(2-hydroxy-3,3-dimethyl-butoxy)-3-methyl-phenyl]-propyl}-benzo[b]thiophene-6-carboxylic acid dimethylamide]",690,573,24,323 nM,"EC50 (rat osteocalcin promoter; 48 hr treatment, Table 1): 18 nM"
"CCC(CC)(c1ccc(OCC(=O)C(C)(C)C)c(C)c1)c1ccc2sc(C(=O)NCC(=O)O)cc2c1 [Ex 15, [(5-{1-[4-(3,3-dimethyl-2-oxo-butoxy)-3-methyl-phenyl]-1-ethyl-propyl}-benzo[b]thiophene-2-carbonyl)-amino]-acetic acid]",,,,539 nM and 63 nM,Mouse Hypercal (DBF mice; [2]): <1000 µg/kg/day
"CCC(O)(CC)COc1ccc(C(CC)(CC)c2cc3ccc(C(=O)O)cc3s2)cc1C [Ex 22, 2-{1-Ethyl-1-[4-(2-ethyl-2-hydroxy-butoxy)-3-methyl-phenyl]-propyl}benzo[b]thiophene-6-carboxylic acid]",1060,154,,458 nM and 139 nM,
